# In PMC5640562, “Synthesis and anticancer activity of novel quinazolinone-based rhodanines” (Chemistry Central Journal, 2017):
# System: HT-1080 cells
# Experiment: MTT cytotoxicity assay, HT-1080 fibrosarcoma cells
# Type: cell-based, human
# Conditions: Homo sapiens, HT-1080, 72 h, 3 days incubation, mean of three independent experiments (± standard deviation)
# Procedure: The compounds were tested for their cytotoxic activity on a solid tumor cell line, i.e. HT-1080 originating from a fibrosarcoma (American Type Culture Collection; ATCC, Rockville, MD, USA), and on two leukemia cell lines, i.e. the HL-60 human promyelocytic leukemia (European Collection of Animal Cell Cultures; ECACC, Salisbury, UK) and the K-562 human chronic myelogenous leukemia (ATCC). Furthermore, the human skin fibroblast strain AG01523 (Coriell Institute for Medical Research, Camden, NJ, USA) was also used as normal control. Adherent cells were routinely cultured in Dulbecco’s […] (DMEM), and leukemia cells in RPMI 1640, in an environment of 5% CO2, 85% humidity, and 37 °C. All media were supplemented with penicillin (100 U/ml), streptomycin (100 μg/ml) (media and antibiotics from Biochrom KG, Berlin, Germany), and 10% fetal bovine serum (Life Technologies Europe BV, Thessaloniki, Greece). Adherent cells were subcultured using a trypsin (0.25%; Life Technologies Europe BV)—citrate (0.30%; Sigma, St. Louis, MO, USA) solution. The cytotoxicity assay was performed by a modification of the MTT method. Briefly, the cells were plated in flat-bottomed 96-well microplates at a density of 5000 cells/well, and incubated overnight before the addition of serial dilutions of the test compounds. The cells were incubated with the compounds or the corresponding vehicle (DMSO) concentrations for 3 days. Then, the medium was replaced with MTT (Sigma) in serum-free, phenol-red-free DMEM (1 mg/ml). After incubation for 4 h, the MTT formazan was solubilized in 2-propanol, and the optical density was measured using a FLUOstar Optima (BMG Labtech, Ortenberg, Germany) microplate reader at a wavelength of 550 nm (reference wavelength 660 nm). Doxorubicin hydrochloride (Sigma) was included in the experiments as positive control. The results represent the mean of three independent experiments and are expressed as IC50 [42].
row,Compound,IC50 [µM]
1,"COc1cc(C=C2SC(=S)NC2=O)ccc1OCc1nc2ccccc2c(=O)n1-c1ccccc1 [Compound 41, 5-{4-[(3-Phenyl-4-oxo-3,4-dihydroquinazolin-2-yl)methoxy]-3-methoxybenzylidene}-2-thioxothiazolidin-4-one]",36.1
2,"COc1cc(C=C2SC(=S)NC2=O)ccc1OCc1nc2ccccc2c(=O)n1-c1cccc(C)c1 [Compound 49, 5-{4-[(3-(3-Methylphenyl)-4-oxo-3,4-dihydroquinazolin-2-yl)methoxy]-3-methoxybenzylidene}-2-thioxothiazolidin-4-one]",30.7
3,"O=C1NC(=S)SC1=Cc1ccc(OCc2nc3ccccc3c(=O)n2-c2ccc(Br)cc2)cc1 [Compound 35, 5-{4-[(3-(4-Bromophenyl)-4-oxo-3,4-dihydroquinazolin-2-yl)methoxy]benzylidene}-2-thioxothiazolidin-4-one]",28.8
4,"O=C1NC(=S)SC1=Cc1ccc(OCc2nc3ccccc3c(=O)n2-c2ccc(F)cc2)cc1 [Compound 32, 5-{4-[(3-(4-Fluorophenyl)-4-oxo-3,4-dihydroquinazolin-2-yl)methoxy]benzylidene}-2-thioxothiazolidin-4-one]",47.3
5,"COc1cc(C=C2SC(=S)NC2=O)ccc1OCc1nc2ccccc2c(=O)n1-c1cccc(Br)c1 [Compound 46, 5-{4-[(3-(3-Bromophenyl)-4-oxo-3,4-dihydroquinazolin-2-yl)methoxy]-3-methoxybenzylidene}-2-thioxothiazolidin-4-one]",23.7
6,"COc1ccc(-n2c(COc3ccc(C=C4SC(=S)NC4=O)cc3OC)nc3ccccc3c2=O)cc1 [Compound 50, 5-{4-[(3-(4-Methoxyphenyl)-4-oxo-3,4-dihydroquinazolin-2-yl)methoxy]-3-methoxybenzylidene}-2-thioxothiazolidin-4-one]",34.7
7,"O=C1NC(=S)SC1=Cc1ccc(OCc2nc3ccccc3c(=O)n2-c2ccc(Cl)cc2)cc1 [Compound 33, 5-{4-[(3-(4-Chlorophenyl)-4-oxo-3,4-dihydroquinazolin-2-yl)methoxy]benzylidene}-2-thioxothiazolidin-4-one]",35.3
8,"Cc1ccc(-n2c(COc3ccc(C=C4SC(=S)NC4=O)cc3)nc3ccccc3c2=O)cc1 [Compound 38, 5-{4-[(3-(4-Methylphenyl)-4-oxo-3,4-dihydroquinazolin-2-yl)methoxy]benzylidene}-2-thioxothiazolidin-4-one]",35.7
9,"O=C1NC(=S)SC1=Cc1ccc(OCc2nc3ccccc3c(=O)n2-c2cccc(Br)c2)cc1 [Compound 36, 5-{4-[(3-(3-Bromophenyl)-4-oxo-3,4-dihydroquinazolin-2-yl)methoxy]benzylidene}-2-thioxothiazolidin-4-one]",43.4
10,"O=C1NC(=S)SC1=Cc1ccc(OCc2nc3ccccc3c(=O)n2-c2cccc(Cl)c2)cc1 [Compound 34, 5-{4-[(3-(3-Chlorophenyl)-4-oxo-3,4-dihydroquinazolin-2-yl)methoxy]benzylidene}-2-thioxothiazolidin-4-one]",57.1
11,"COc1cc(C=C2SC(=S)NC2=O)ccc1OCc1nc2ccccc2c(=O)n1-c1ccc(C)cc1 [Compound 48, 5-{4-[(3-(4-Methylphenyl)-4-oxo-3,4-dihydroquinazolin-2-yl)methoxy]-3-methoxybenzylidene}-2-thioxothiazolidin-4-one]",31.5

# System: not given
# Experiment: not given
# Conditions: not given
row,melting point [°C],Compound
1,121 to 123,"O=C1NC(=S)SC1=Cc1ccc(OCc2nc3ccccc3c(=O)n2-c2ccc(Cl)cc2)cc1 (hydrate or solvate) [Compound 33, 5-{4-[(3-(4-Chlorophenyl)-4-oxo-3,4-dihydroquinazolin-2-yl)methoxy]benzylidene}-2-thioxothiazolidin-4-one]"
2,214 to 217,"COc1cc(C=C2SC(=S)NC2=O)ccc1OCc1nc2ccccc2c(=O)n1-c1ccc(Br)cc1 (hydrate or solvate) [Compound 45, 5-{4-[(3-(4-Bromophenyl)-4-oxo-3,4-dihydroquinazolin-2-yl)methoxy]-3-methoxybenzylidene}-2-thioxothiazolidin-4-one]"
3,148 to 150,"COc1ccc(-n2c(COc3ccc(C=C4SC(=S)NC4=O)cc3OC)nc3ccccc3c2=O)cc1 (hydrate or solvate) [Compound 50, 5-{4-[(3-(4-Methoxyphenyl)-4-oxo-3,4-dihydroquinazolin-2-yl)methoxy]-3-methoxybenzylidene}-2-thioxothiazolidin-4-one]"
4,153 to 155,"O=C1NC(=S)SC1=Cc1ccc(OCc2nc3ccccc3c(=O)n2-c2ccc(C(F)(F)F)cc2)cc1 (hydrate or solvate) [Compound 37, 5-{4-[(3-(4-Trifluoromethylphenyl)-4-oxo-3,4-dihydroquinazolin-2-yl)methoxy]benzylidene}-2-thioxothiazolidin-4-one]"
5,237 to 239,"O=C1NC(=S)SC1=Cc1ccc(OCc2nc3ccccc3c(=O)n2-c2cccc(Cl)c2)cc1 (hydrate or solvate) [Compound 34, 5-{4-[(3-(3-Chlorophenyl)-4-oxo-3,4-dihydroquinazolin-2-yl)methoxy]benzylidene}-2-thioxothiazolidin-4-one]"
6,171 to 174,"O=C1NC(=S)SC1=Cc1ccc(OCc2nc3ccccc3c(=O)n2-c2ccc(Br)cc2)cc1 (hydrate or solvate) [Compound 35, 5-{4-[(3-(4-Bromophenyl)-4-oxo-3,4-dihydroquinazolin-2-yl)methoxy]benzylidene}-2-thioxothiazolidin-4-one]"
7,148 to 150,"Cc1ccc(-n2c(COc3ccc(C=C4SC(=S)NC4=O)cc3)nc3ccccc3c2=O)cc1 (hydrate or solvate) [Compound 38, 5-{4-[(3-(4-Methylphenyl)-4-oxo-3,4-dihydroquinazolin-2-yl)methoxy]benzylidene}-2-thioxothiazolidin-4-one]"
8,154 to 156,"COc1cc(C=C2SC(=S)NC2=O)ccc1OCc1nc2ccccc2c(=O)n1-c1cccc(C)c1 (hydrate or solvate) [Compound 49, 5-{4-[(3-(3-Methylphenyl)-4-oxo-3,4-dihydroquinazolin-2-yl)methoxy]-3-methoxybenzylidene}-2-thioxothiazolidin-4-one]"
9,239 to 241,"COc1cc(C=C2SC(=S)NC2=O)ccc1OCc1nc2ccccc2c(=O)n1-c1ccc(Cl)cc1 (hydrate or solvate) [Compound 43, 5-{4-[(3-(4-Chlorophenyl)-4-oxo-3,4-dihydroquinazolin-2-yl)methoxy]-3-methoxybenzylidene}-2-thioxothiazolidin-4-one]"
10,243 to 246,"COc1cc(C=C2SC(=S)NC2=O)ccc1OCc1nc2ccccc2c(=O)n1-c1ccccc1 (hydrate or solvate) [Compound 41, 5-{4-[(3-Phenyl-4-oxo-3,4-dihydroquinazolin-2-yl)methoxy]-3-methoxybenzylidene}-2-thioxothiazolidin-4-one]"
11,243 to 245,"COc1cc(C=C2SC(=S)NC2=O)ccc1OCc1nc2ccccc2c(=O)n1-c1cccc(Br)c1 (hydrate or solvate) [Compound 46, 5-{4-[(3-(3-Bromophenyl)-4-oxo-3,4-dihydroquinazolin-2-yl)methoxy]-3-methoxybenzylidene}-2-thioxothiazolidin-4-one]"
